Experimental data from the NIST ThermoML archive (doi:10.1016/j.jct.2005.06.003).
± gives the expanded uncertainty stated by the source.

Details: Liquid, Closed cell (Static) method

ClC(Cl)=C(Cl)Cl [tetrachloroethene]
vapor or sublimation pressure (283.15 K): 1.023 ± 0.022 kPa | vapor or sublimation pressure (288.15 K): 1.4 ± 0.022 kPa | vapor or sublimation pressure (293.15 K): 1.861 ± 0.022 kPa | vapor or sublimation pressure (298.15 K): 2.462 ± 0.023 kPa | vapor or sublimation pressure (303.15 K): 3.205 ± 0.023 kPa | vapor or sublimation pressure (308.15 K): 4.117 ± 0.024 kPa | vapor or sublimation pressure (313.15 K): 5.253 ± 0.025 kPa | vapor or sublimation pressure (318.15 K): 6.621 ± 0.027 kPa | vapor or sublimation pressure (323.15 K): 8.286 ± 0.028 kPa

ClC(Cl)C(Cl)Cl [1,1,2,2-tetrachloroethane]
vapor or sublimation pressure (283.15 K): 0.263 ± 0.02 kPa | vapor or sublimation pressure (288.15 K): 0.373 ± 0.02 kPa | vapor or sublimation pressure (293.15 K): 0.521 ± 0.021 kPa | vapor or sublimation pressure (298.15 K): 0.711 ± 0.021 kPa | vapor or sublimation pressure (303.15 K): 0.98 ± 0.022 kPa | vapor or sublimation pressure (308.15 K): 1.289 ± 0.022 kPa | vapor or sublimation pressure (313.15 K): 1.701 ± 0.022 kPa | vapor or sublimation pressure (318.15 K): 2.236 ± 0.023 kPa | vapor or sublimation pressure (323.15 K): 2.86 ± 0.023 kPa

C1CCOC1 [tetrahydrofuran]
vapor or sublimation pressure (283.15 K): 10.73 ± 0.032 kPa | vapor or sublimation pressure (288.15 K): 13.67 ± 0.036 kPa | vapor or sublimation pressure (293.15 K): 17.25 ± 0.041 kPa | vapor or sublimation pressure (298.15 K): 21.6 ± 0.047 kPa | vapor or sublimation pressure (303.15 K): 26.81 ± 0.054 kPa | vapor or sublimation pressure (308.15 K): 32.94 ± 0.065 kPa | vapor or sublimation pressure (313.15 K): 40.21 ± 0.077 kPa | vapor or sublimation pressure (318.15 K): 48.68 ± 0.091 kPa | vapor or sublimation pressure (323.15 K): 58.54 ± 0.11 kPa
